Source: patent US8293774B2, “Optically active (R)-aryloxypropionic acid amides and herbicidal composition comprising same” (Kyung Nong Corporation, priority 2007, dated 2012)

What was measured:
[1] = tested on: Rice; experiment: Weed control test, 4-leaf stage plants (Test Example 1, Table 8); conditions: in vivo
Description: (§1) Seeds of rice, wheat, soy bean, barley, corn, common sorgum, barnyard grass, large crabgrass, creek grass, green foxtail and fall panicum were placed in sandy loam in 600 cm^2 pots and covered with soil. After keeping the pots in a greenhouse at 20 to 30° C. allowing growth of the plants to the 3-leaf stage of the barnyard grass, 2,000 l/ha of an emulsion obtained by diluting with water a mixture of 1 part by weight of a test compound, 5 parts by weight of acetone and 1 part by weight of an emulsifying agent (Tween 80, Junsei) was applied to the surface of the foliage of the plants. The plant damage at 10 days and 20 days after the foliage treatment was visually evaluated from the level of 1 to 100% by comparison with the untreated control: […]

[2] = tested on: ORYSA (Oryza sativa cv. Dongjin, rice); experiment: Weed control test, foliage treatment (Test Example 1, Table 7); conditions: in vivo
[3] = tested on: TRZAW (Tritium aestivum L., wheat); experiment: as above; conditions: in vivo
[4] = tested on: GLXMA (Glycine max(L.) MERR, soy bean); experiment: as above; conditions: in vivo
[5] = tested on: ARTHIS (Arthraxon hispidus (Thunb.) Makino, creek grass); experiment: as above; type: in vivo; conditions: Arthraxon hispidus, foliar, read-out: Plant damage (herbicidal activity), visually evaluated, ARTHIS; for pest or weed control at 25 g/ha: 0.025 kg/ha; for pest or weed control at 100 g/ha: 0.1 kg/ha; for pest or weed control at 200 g/ha: 0.2 kg/ha
How it was run: (§2)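 Greenhouse pot plants in sandy loam at 20 to 30 °C, grown to the 3-leaf stage of barnyard grass. Foliage sprayed at 2,000 l/ha with a water-diluted emulsion of compound, acetone and Tween 80 (1:5:1 by weight). Damage scored visually, 1 to 100% versus untreated control, at 10 and 20 days.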

[6] = tested on: DIGSA (Digitaria Sanguinalis (L.) SCOP, large crabgrass); experiment: as above; type: in vivo; conditions: Digitaria sanguinalis, foliar, read-out: Plant damage (herbicidal activity), visually evaluated, DIGSA; for pest or weed control at 25 g/ha: 0.025 kg/ha; for pest or weed control at 100 g/ha: 0.1 kg/ha; for pest or weed control at 200 g/ha: 0.2 kg/ha
How it was run: as §2

[7] = tested on: ZEAMX (Zea mays L., corn); experiment: as above; type: in vivo; conditions: Zea mays, foliar, read-out: Plant damage (herbicidal activity), visually evaluated, ZEAMX; for plant injury at 25 g/ha: 0.025 kg/ha; for plant injury at 100 g/ha: 0.1 kg/ha; for plant injury at 200 g/ha: 0.2 kg/ha
How it was run: as §2

[8] = tested on: ECHOG (Echinoch crus-galli Beauv. var. caudata Kitagawa, barnyard grass); experiment: as above; type: in vivo; conditions: Echinochloa crus-galli, foliar, 3-leaf stage, read-out: Plant damage (herbicidal activity), visually evaluated, ECHOG; for pest or weed control at 25 g/ha: 0.025 kg/ha; for pest or weed control at 100 g/ha: 0.1 kg/ha; for pest or weed control at 200 g/ha: 0.2 kg/ha
How it was run: as §2

[9] = tested on: PANDI (Panium dichotomiflorum Michx, fall panicum); experiment: as above; type: in vivo; conditions: Panicum dichotomiflorum, foliar, read-out: Plant damage (herbicidal activity), visually evaluated, PANDI; for pest or weed control at 25 g/ha: 0.025 kg/ha; for pest or weed control at 100 g/ha: 0.1 kg/ha; for pest or weed control at 200 g/ha: 0.2 kg/ha
How it was run: as §2

[10] = tested on: SORBI (Andropogon sorghum, common sorgum); experiment: as above; type: in vivo; conditions: Sorghum bicolor, foliar, read-out: Plant damage (herbicidal activity), visually evaluated, SORBI; for pest or weed control at 25 g/ha: 0.025 kg/ha; for pest or weed control at 100 g/ha: 0.1 kg/ha; for pest or weed control at 200 g/ha: 0.2 kg/ha
How it was run: as §2

[11] = tested on: SETVIR (Setaria viridis (L.) Beauv, green foxtail); experiment: as above; type: in vivo; conditions: Setaria viridis, foliar, read-out: Plant damage (herbicidal activity), visually evaluated, SETVIR; for pest or weed control at 25 g/ha: 0.025 kg/ha; for pest or weed control at 100 g/ha: 0.1 kg/ha; for pest or weed control at 200 g/ha: 0.2 kg/ha
How it was run: as §2

[12] = tested on: Barnyard grass; experiment: Weed control test, 4-leaf stage plants (Test Example 1, Table 8); type: in vivo, Echinoch crus-galli Beauv. var. caudata Kitagawa
Excerpt: as §1, with “[…],” for “After keeping the pots in a greenhouse at 20 to 30° C. allowing growth of the plants to the 3-leaf stage of the barnyard grass,”

[13] = tested on: HORVU (Hordeum vulgare L., barley); experiment: Weed control test, foliage treatment (Test Example 1, Table 7); conditions: in vivo

| SMILES | Plant damage (herbicidal activity), visually evaluated, ORYSA [2] | Plant damage (herbicidal activity), visually evaluated, TRZAW [3] | Plant damage (herbicidal activity), visually evaluated, GLXMA [4] | pest or weed control at 25 g/ha [5] | pest or weed control at 100 g/ha [5] | pest or weed control at 200 g/ha [5] | pest or weed control at 25 g/ha [6] | pest or weed control at 100 g/ha [6] | pest or weed control at 200 g/ha [6] | plant injury at 25 g/ha [7] | plant injury at 100 g/ha [7] | plant injury at 200 g/ha [7] | pest or weed control at 25 g/ha [8] | pest or weed control at 100 g/ha [8] | pest or weed control at 200 g/ha [8] | pest or weed control at 25 g/ha [9] | pest or weed control at 100 g/ha [9] | pest or weed control at 200 g/ha [9] | pest or weed control at 25 g/ha [10] | pest or weed control at 100 g/ha [10] | other results |
| --- | --- | --- | --- | --- | --- | --- | --- | --- | --- | --- | --- | --- | --- | --- | --- | --- | --- | --- | --- | --- | --- |
| C[C@@H](Oc1ccc(Oc2nc3ccc(Cl)cc3o2)cc1)C(=O)N(C)c1nc2ccccc2s1 [Example 6, (R)-2-[4-(6-chloro-2-benzoxazolyloxy)phenoxy]propionic acid-N-(2-benzothiazolyl)-N-methyl amide] | 0% | 0% | 0% | 0% | 20% | 50% | 0% | 20% | 70% | 0% | 10% | 90% | 0% | 20% | 70% | 0% | 20% | 70% | 10% | 50% | Plant damage (herbicidal activity), visually evaluated, Rice [1]: 0%; pest or weed control at 200 g/ha [10]: 90%; pest or weed control at 25 g/ha [11]: 0%; pest or weed control at 100 g/ha [11]: 20%; pest or weed control at 200 g/ha [11]: 50%; Plant damage (herbicidal activity), visually evaluated, Barnyard grass ([12]; 0.025 kg/ha): 0%; Plant damage (herbicidal activity), visually evaluated, Barnyard grass ([12]; 0.05 kg/ha): 0%; Plant damage (herbicidal activity), visually evaluated, Barnyard grass ([12]; 0.1 kg/ha): 10%; Plant damage (herbicidal activity), visually evaluated, Barnyard grass ([12]; 0.4 kg/ha): 30% |
| COc1ccc2nc(N(C)C(=O)[C@@H](C)Oc3ccc(Oc4nc5ccc(Cl)cc5o4)cc3)sc2c1 [Example 14, (R)-2-[4-(6-chloro-2-benzoxazolyloxy)phenoxy]propionic acid-N-(6-methoxy-2-benzothiazolyl)-N-methyl amide] | 0% | 0% | 0% | 0% | 20% | 50% | 0% | 20% | 70% | 0% | 10% | 90% | 0% | 20% | 70% | 0% | 20% | 70% | 10% | 50% | Plant damage (herbicidal activity), visually evaluated, Rice [1]: 0%; pest or weed control at 200 g/ha [10]: 90%; pest or weed control at 25 g/ha [11]: 0%; pest or weed control at 100 g/ha [11]: 20%; pest or weed control at 200 g/ha [11]: 50%; Plant damage (herbicidal activity), visually evaluated, Barnyard grass ([12]; 0.025 kg/ha): 0%; Plant damage (herbicidal activity), visually evaluated, Barnyard grass ([12]; 0.05 kg/ha): 0%; Plant damage (herbicidal activity), visually evaluated, Barnyard grass ([12]; 0.1 kg/ha): 10%; Plant damage (herbicidal activity), visually evaluated, Barnyard grass ([12]; 0.4 kg/ha): 50% |
| C[C@@H](Oc1ccc(OC(F)=Cc2ccc(Cl)cc2)cc1)C(=O)Nc1nc2cc(Cl)ccc2o1 [Example 56, (R)-2-[4-(1-fluoro-2-(4-chlorophenyl)vinyloxy)phenoxy]propionic acid-N-(5-chloro-2-benzoxazolyl)amide] | 0% | 0% | 0% | 0% | 0% | 10% | 0% | 20% | 90% | 10% | 90% | 90% | 20% | 70% | 90% | 0% | 0% | 10% | 0% | 20% | Plant damage (herbicidal activity), visually evaluated, HORVU [13]: 0%; pest or weed control at 200 g/ha [10]: 20%; pest or weed control at 25 g/ha [11]: 0%; pest or weed control at 100 g/ha [11]: 0%; pest or weed control at 200 g/ha [11]: 20% |
